# Molecular target: T1, SIRT1 (Homo sapiens, UniProt Q96EB6)
# T1 sequence (Q96EB6 1-747): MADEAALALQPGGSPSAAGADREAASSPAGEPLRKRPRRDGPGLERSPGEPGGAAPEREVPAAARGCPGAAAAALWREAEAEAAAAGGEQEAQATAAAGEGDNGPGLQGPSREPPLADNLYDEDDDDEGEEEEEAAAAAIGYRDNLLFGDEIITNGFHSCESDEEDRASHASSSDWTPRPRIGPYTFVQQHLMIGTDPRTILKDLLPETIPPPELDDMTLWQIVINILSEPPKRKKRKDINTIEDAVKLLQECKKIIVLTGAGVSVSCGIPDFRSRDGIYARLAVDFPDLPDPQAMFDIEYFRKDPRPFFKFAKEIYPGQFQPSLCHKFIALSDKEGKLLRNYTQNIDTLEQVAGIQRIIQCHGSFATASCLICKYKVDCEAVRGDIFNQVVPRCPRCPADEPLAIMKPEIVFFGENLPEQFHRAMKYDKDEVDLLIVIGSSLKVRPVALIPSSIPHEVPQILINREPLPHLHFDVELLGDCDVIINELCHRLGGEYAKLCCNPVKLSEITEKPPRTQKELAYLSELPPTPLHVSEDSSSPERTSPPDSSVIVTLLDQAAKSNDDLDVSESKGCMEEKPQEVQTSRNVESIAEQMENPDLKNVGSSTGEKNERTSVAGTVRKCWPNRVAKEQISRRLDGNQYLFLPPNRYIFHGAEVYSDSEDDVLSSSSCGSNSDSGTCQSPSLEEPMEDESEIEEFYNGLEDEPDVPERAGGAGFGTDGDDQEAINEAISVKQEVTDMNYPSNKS
# Test: Trp mass spectrometry assay of SIRT1 activity (EC1.5, percent maximum activation)
# Format: biochemical
# Details: Trp mass spectrometry assay; for TRP Activity (EC1.5): EC1.5 = concentration giving 150% activation of SIRT1
# Outline: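 N-terminal His-tagged human SIRT1 from E. coli BL21(DE3) was incubated 25 min with a 5TMR-labelled, p53-derived Trp peptide and NAD plus varying compound concentrations, then quenched with formic acid. Mass spectrometry quantified OAADPR or deacetylated peptide versus compound-free control, giving EC1.5 and percent maximum activation.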
# [1] = 0.5 μM peptide substrate, 120 μM βNAD+, 10 nM SIRT1, 25 minutes at 25° C.
# [2] = percent maximum activation of SIRT1
SMILES,"TRP Activity (EC1.5, concentration of test compound that results in 150% activation of SIRT1) [1]",TRP MAX RESP (percent maximum fold activation) [1],TRP Activity (EC1.5),TRP MAX RESP (percent maximum fold activation) [2]
"CC1(C)CN(c2ccc3c(n2)N(C(=O)Nc2cnccn2)[C@H]2CCN3C2)CCO1 [Example 211, (4S)-7-(2,2-dimethylmorpholino)-N-(pyrazin-2-yl)-3,4-dihydro-1,4-methanopyrido[2,3-b][1,4]diazepine-5(2H)-carboxamide]",A (EC1.5<1 μM),A (Fold activation ≧150%),–,–
"NC(=O)N1c2nc(-c3cccc(C(F)(F)F)c3)ccc2N2CC[C@H]1C2 [Example 379, (4S)-7-(3-(trifluoromethyl)phenyl)-3,4-dihydro-1,4-methanopyrido[2,3-b][1,4]diazepine-5(2H)-carboxamide]",C (EC1.5>25 μM),B (Fold Activation <150%),–,–
"CC(C)(O)CCOc1nccc(NC(=O)N2c3nc(-c4cccc(C(F)(F)F)c4)c(Cl)cc3N3CC[C@H]2C3)n1 [Example 48, (4S)-8-chloro-N-(2-(3-hydroxy-3-methylbutoxy)pyrimidin-4-yl)-7-(3-(trifluoromethyl)phenyl)-3,4-dihydro-1,4-methanopyrido[2,3-b][1,4]diazepine-5(2H)-carboxamide]",–,–,B (EC1.5 1-25 μM),A (Fold activation ≧150%)
"Cc1cc(-c2nc3c(cc2Cl)N2CC[C@@H](C2)N3C(=O)Nc2cc(F)cc(-c3cccnc3)c2)ccn1 [Example 47, (4S)-8-chloro-N-(3-fluoro-5-(pyridin-3-yl)phenyl)-7-(2-methylpyridin-4-yl)-3,4-dihydro-1,4-methanopyrido[2,3-b][1,4]diazepine-5(2H)-carboxamide]",–,–,B (EC1.5 1-25 μM),A (Fold activation ≧150%)
"O=C(Nc1cnccn1)N1c2nc(N3CCOC(C(F)(F)F)C3)ccc2N2CC[C@H]1C2 (single isomer, unassigned) [Example 231]",A (EC1.5<1 μM),A (Fold activation ≧150%),–,–
"Cc1cc(-c2ccc3c(n2)N(C(=O)N2CCO[C@H](C)C2)[C@H]2CCN3C2)ccn1.Cl [Example 232, ((R)-2-methylmorpholino)((4S)-7-(2-methylpyridin-4-yl)-3,4-dihydro-1,4-methanopyrido[2,3-b][1,4]diazepin-5(2H)-yl)methanone hydrochloride]",C (EC1.5>25 μM),B (Fold Activation <150%),–,–
"O=C(Nc1cccnc1)N1c2nc(N3CCOC[C@@H]3CO)ccc2N2CC[C@H]1C2 [Example 203, (4S)-7-((S)-3-(hydroxymethyl)morpholino)-N-(pyridin-3-yl)-3,4-dihydro-1,4-methanopyrido[2,3-b][1,4]diazepine-5(2H)-carboxamide]",C (EC1.5>25 μM),B (Fold Activation <150%),–,–
O=C(Nc1cncc(OCCCO)n1)N1c2nc(-c3cccc(C(F)(F)F)c3)ccc2N2CC[C@H]1C2 [Example 319],–,A (Fold activation ≧150%),–,–
"O=C(NCCO)N1c2nc(-c3cccc(C(F)(F)F)c3)ccc2N2CC[C@H]1C2 [Example 378, (4S)-N-(2-hydroxyethyl)-7-(3-(trifluoromethyl)phenyl)-3,4-dihydro-1,4-methanopyrido[2,3-b][1,4]diazepine-5(2H)-carboxamide]",B (EC1.5 1-25 μM),A (Fold activation ≧150%),–,–
"O=C(Nc1cnccn1)N1c2nc(N3CCOC(C(F)(F)F)C3)ccc2N2CC[C@H]1C2 (single isomer, unassigned) [Example 230]",B (EC1.5 1-25 μM),A (Fold activation ≧150%),–,–
"O=C(Nc1ncc(OC[C@@H](O)CO)cn1)N1c2nc(-c3cccc(C(F)(F)F)c3)c(Cl)cc2N2CC[C@H]1C2 [Example 83, (4S)-8-chloro-N-(5-((S)-2,3-dihydroxypropoxy)pyrimidin-2-yl)-7-(3-(trifluoromethyl)phenyl)-3,4-dihydro-1,4-methanopyrido[2,3-b][1,4]diazepine-5(2H)-carboxamide]",–,–,B (EC1.5 1-25 μM),A (Fold activation ≧150%)

# The next lines start with the values.
"TRP Activity (EC1.5, concentration of test compound that results in 150% activation of SIRT1) [1]",TRP MAX RESP (percent maximum fold activation) [1],TRP Activity (EC1.5),TRP MAX RESP (percent maximum fold activation) [2],SMILES
B (EC1.5 1-25 μM),A (Fold activation ≧150%),–,–,"Cc1cc(-c2ccc3c(n2)N(C(=O)Nc2nccc(-c4cn(C)nc4C)n2)[C@H]2CCN3C2)ccn1 [Example 358, (4S)-N-(4-(1,3-dimethyl-1H-pyrazol-4-yl)pyrimidin-2-yl)-7-(2-methylpyridin-4-yl)-3,4-dihydro-1,4-methanopyrido[2,3-b][1,4]diazepine-5(2H)-carboxamide]"
–,–,C (EC1.5>25 μM),B (Fold Activation <150%),"Cc1cc(-c2ccc3c(n2)N(C(=O)N2CCC(C)C2)[C@H]2CCN3C2)ccn1 (single isomer, unassigned) [Example 193]"
–,–,B (EC1.5 1-25 μM),A (Fold activation ≧150%),"O=C(Nc1cnccn1)N1c2nc(-c3ccn[nH]3)ccc2N2CC[C@H]1C2 [Example 176, (4S)-N-(pyrazin-2-yl)-7-(1H-pyrazol-5-yl)-3,4-dihydro-1,4-methanopyrido[2,3-b][1,4]diazepine-5(2H)-carboxamide]"
–,–,B (EC1.5 1-25 μM),A (Fold activation ≧150%),"CCOc1cc(-c2ccc3c(n2)N(C(=O)Nc2cnccn2)[C@H]2CCN3C2)ccn1 [Example 140, (4S)-7-(2-ethoxypyridin-4-yl)-N-(pyrazin-2-yl)-3,4-dihydro-1,4-methanopyrido[2,3-b][1,4]diazepine-5(2H)-carboxamide]"
–,–,B (EC1.5 1-25 μM),A (Fold activation ≧150%),"CN(C)c1cccc(-c2ccc3c(n2)N(C(=O)Nc2cnccn2)[C@H]2CCN3C2)c1 [Example 172, (4S)-7-(3-(dimethylamino)phenyl)-N-(pyrazin-2-yl)-3,4-dihydro-1,4-methanopyrido[2,3-b][1,4]diazepine-5(2H)-carboxamide]"
–,–,C (EC1.5>25 μM),B (Fold Activation <150%),"Cc1cc(-c2ccc3c(n2)N(C(=O)Nc2cnncn2)[C@H]2CCN3C2)ccn1 [Example 187, (4S)-7-(2-methylpyridin-4-yl)-N-(1,2,4-triazin-5-yl)-3,4-dihydro-1,4-methanopyrido[2,3-b][1,4]diazepine-5(2H)-carboxamide]"
–,A (Fold activation ≧150%),–,–,Cc1cc(-c2ccc3c(n2)N(C(=O)Nc2cc(-c4cnn(CC(F)(F)F)c4)ccn2)[C@H]2CCN3C2)ccn1 [Example 366]
–,–,B (EC1.5 1-25 μM),A (Fold activation ≧150%),"O=C(Nc1cnccn1)N1c2nc(-c3ccc(CO)nc3)ccc2N2CC[C@H]1C2 [Example 147, (4S)-7-(6-(hydroxymethyl)pyridin-3-yl)-N-(pyrazin-2-yl)-3,4-dihydro-1,4-methanopyrido[2,3-b][1,4]diazepine-5(2H)-carboxamide]"
–,–,B (EC1.5 1-25 μM),A (Fold activation ≧150%),"Cc1cc(-c2nc3c(cc2C#N)N2CC[C@@H](C2)N3C(=O)Nc2ccccn2)ccn1 [Example 92, (4S)-8-cyano-7-(2-methylpyridin-4-yl)-N-(pyridin-2-yl)-3,4-dihydro-1,4-methanopyrido[2,3-b][1,4]diazepine-5(2H)-carboxamide]"
A (EC1.5<1 μM),A (Fold activation ≧150%),–,–,"Cc1cc(-c2ccc3c(n2)N(C(=O)Nc2cncc(OC(C)C)n2)[C@H]2CCN3C2)ccn1 [Example 221, (4S)-N-(6-isopropoxypyrazin-2-yl)-7-(2-methylpyridin-4-yl)-3,4-dihydro-1,4-methanopyrido[2,3-b][1,4]diazepine-5(2H)-carboxamide]"
–,–,B (EC1.5 1-25 μM),A (Fold activation ≧150%),"Cc1cc(-c2ccc3c(n2)N(C(=O)Nc2cccnn2)[C@H]2CCN3C2)ccn1 [Example 158, (4S)-7-(2-methylpyridin-4-yl)-N-(pyridazin-3-yl)-3,4-dihydro-1,4-methanopyrido[2,3-b][1,4]diazepine-5(2H)-carboxamide]"

# From patent US20170355705A1 (GlaxoSmithKline Intellectual Property (No.2) Limited, priority 2014, published 2017)
